In publication PMC9085577, “Discovery of a Potent and Orally Active Dual GPBAR1/CysLT1R Modulator for the Treatment of Metabolic Fatty Liver Disease” (Frontiers in Pharmacology, 2022):

Test system: liver transcriptome
Assay: AmpliSeq liver transcriptome of HFD-F mice
Format: in vivo
Conditions: liver, HFD-F + compound 2 vs HFD-F
Excerpt: C57BL/6J male mice were fed a high fat diet (HFD) containing 59 KJ% fat plus 1% cholesterol, w/o sugar (ssniff ® EF R/M acc. D12330 mod. 22,7 ME/kg) and fructose (HFD-F) in drinking water (42 g/L), or normal chow diet for 61 days. Food intake was estimated as the difference of weight between the offered and the remnant amount of food at 3-days intervals. The food was provided as pressed pellets and the residual spillage was not considered. After 7 days, HFD-F mice were randomized to receive HFD-F alone or in combination with compound 2 (30 mg/kg/day) by gavage until the end of the experiment. Doses of each agent were chosen according to previously published data. Mice were housed under controlled temperature (22°C) and photoperiods (12:12-h light/dark cycle), allowed unrestricted access to standard mouse chow and tap water. The experimental protocol was approved by the Animal Care and Use Committee of the University of Perugia and by the Italian Minister of Health and Istituto Superiore di Sanità (Italy) and was in agreement with the European guidelines for use of experimental animals (permission n. 583/2017-PR). The general health of the animals was monitored daily by the Veterinarian in the animal facility. At the day of sacrifice, fed mice were deeply anesthetized with a mixture of tiletamine hypochloride and zolazepam hypochloride/xylazine at a dose of 50/5 mg/kg and sacrificed before 12 a.m.
High-quality RNA was extracted from mice livers, using the Direct-zol™ RNA MiniPrep w/Zymo-Spin™ IIC Columns (Zymo Research, Irvine, CA) according to the manufacturer’s instructions. RNA quality and quantity were assessed with the Qubit® RNA HS Assay Kit and a Qubit 3.0 fluorometer (Invitrogen, Carlsbad, CA) followed by agarose gel electrophoresis. Libraries were generated using the Ion AmpliSeq™ Transcriptome Mouse Gene Expression Core Panel and Chef-Ready Kit (Comprehensive evaluation of AmpliSeq transcriptome, a whole transcriptome RNA sequencing methodology) (Thermo Fisher Scientific, Waltham, MA). Briefly, 10 ng of RNA was reverse transcribed with SuperScript™ Vilo™ cDNA Synthesis Kit (Thermo Fisher Scientific, Waltham, MA) before library preparation on the Ion Chef™ instrument (Thermo Fisher Scientific, Waltham, MA). The resulting cDNA was amplified to prepare barcoded libraries using the Ion Code™ PCR Plate, and the Ion AmpliSeq™ Transcriptome Mouse Gene Expression Core Panel (Thermo Fisher Scientific, Waltham, MA), Chef-Ready Kit, according to the manufacturer’s instructions. Barcoded libraries were combined to a final concentration of 100 p.m., and used to prepare Template-Positive Ion Sphere™ (Thermo Fisher Scientific, Waltham, MA) Particles to load on Ion 540™ Chips, using the Ion 540™ Kit-Chef (Thermo Fisher Scientific, Waltham, MA). Sequencing was performed on an Ion S5™ Sequencer with Torrent Suite™ Software v6 (Thermo Fisher Scientific, Waltham, MA). The analyses were performed with a range of fold <−2 and >+2 and a p value <0.05, using Transcriptome Analysis Console Software (version 4.0.1), certified for AmpliSeq analysis (Thermo-Fisher). The transcriptomic data have been deposited as dataset on Mendeley data repository (reference number linking to the repository: Fiorucci, Stefano; Biagioli, Michele; Marchianò, Silvia; Di Giorgio, Cristina (2021), “Discovery of potent dual GPBAR1/CysLT1R modulator for the treatment of metabolic fatty liver disease,” Mendeley Data, V1, doi: 10.17632/6dnrk9fc72.1).

SMILES: O=C(O)c1cccc(-c2ccc(OCc3ccc4ccccc4n3)cc2)c1 [Compound 2, 4'-(quinolin-2-ylmethoxy)-[1,1′-biphenyl]-3-carboxylic acid]
- Gm31649 transcript Fold Change: 2.82
- Gm36796 transcript Fold Change: -2.15
- Gnat1 transcript Fold Change: -2.26
- Gngt1 transcript Fold Change: -2.64
- Gpnmb transcript Fold Change: -3.95
- Hnf4aos transcript Fold Change: 2.36
- Hnrnpa0 transcript Fold Change: -2.58
- Hspa5 transcript Fold Change: -2.37
- Igip transcript Fold Change: -2.32
- Il1b transcript Fold Change: -2.2
- Il1rn transcript Fold Change: -2.12
- Insig2 transcript Fold Change: -3.18
- Itgam transcript Fold Change: -5.37
- Kif20a transcript Fold Change: -2.25
- LOC108167447 transcript Fold Change: 2.42
- LOC108168323 transcript Fold Change: -2.25
- Lactb2 transcript Fold Change: -2.04
- Ly6d transcript Fold Change: -4.62
- Meg3 transcript Fold Change: 2.02
- Mettl9 transcript Fold Change: -2.22
- Mki67 transcript Fold Change: -2.36
- Mogat1 transcript Fold Change: -2.13
- Mthfd2 transcript Fold Change: -2.03
- Mvd transcript Fold Change: -2.06
- Nat8 transcript Fold Change: 2.38
- Neat1 transcript Fold Change: -2.87
- Npas2 transcript Fold Change: -3.98
- Nr4a1 transcript Fold Change: -2.25
- Nrep transcript Fold Change: 2.34
- Nuak2 transcript Fold Change: 2.15
- Pcbp1 transcript Fold Change: -4.32
- Pcp4l1 transcript Fold Change: 2.55
- Pdilt transcript Fold Change: 3.33
- Pdpn transcript Fold Change: -2.04
- Per3 transcript Fold Change: 4.98
- Plau transcript Fold Change: -4.02
- Plaur transcript Fold Change: -2.77
- Pld6 transcript Fold Change: 2.03
- Plekhg3 transcript Fold Change: 2.05
- Plxnc1 transcript Fold Change: -2.05
- Pnpla3 transcript Fold Change: -2.9
- Podn transcript Fold Change: 2.29
- Ppp1r3c transcript Fold Change: -2.05
- Prox1 transcript Fold Change: 2.06
- Psat1 transcript Fold Change: -2.69
- Ptgs2 transcript Fold Change: -4.87
- Raet1e transcript Fold Change: -2.18
- Raet1d transcript Fold Change: -2.32
- Ralbp1 transcript Fold Change: 3.61
- Rhob transcript Fold Change: -3.06
- Rrs1 transcript Fold Change: -2.27
- Saa4 transcript Fold Change: 5.34
- Sart3 transcript Fold Change: 2.37
- Sbk1 transcript Fold Change: 2.54
- Sec11c transcript Fold Change: -2.18
- Senp1 transcript Fold Change: 3.54
- Serpina7 transcript Fold Change: -2.84
- Serpine1 transcript Fold Change: -3.49
- Slc16a1 transcript Fold Change: -2.37
- Slc17a8 transcript Fold Change: -2.06
- Slc39a8 transcript Fold Change: -2.02
- Slc40a1 transcript Fold Change: -2.28
- Slc46a3 transcript Fold Change: 2.23
- Spon2 transcript Fold Change: -3.19
- Sqle transcript Fold Change: -2.72
- Stfa3 transcript Fold Change: -9.86
- Taok3 transcript Fold Change: 2.06
- Tk1 transcript Fold Change: 2.3
- Tmx1 transcript Fold Change: 2.28
- Tnf transcript Fold Change: -2.39
- Tnfrsf23 transcript Fold Change: -2.38
- Tnnc1 transcript Fold Change: 2.09
- Tsku transcript Fold Change: 2.15
- Ubqln2 transcript Fold Change: -2.65
- Uhrf1 transcript Fold Change: -2.03
- Upp2 transcript Fold Change: 2.5
- Usp2 transcript Fold Change: 3.94
- Wrn transcript Fold Change: 3.79
- Zfp101 transcript Fold Change: -2.1
- Zfp445 transcript Fold Change: 2.82
